Activity calls are given as the source filed them.
Assays:
Cytochrome P450 1A2 = biological target: T1, Cytochrome P450 1A2 (Homo sapiens, UniProt P05177);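 note: PubChem cytochrome P450 panel assay, CYP1A2 panel member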
T1 sequence (P05177 whole entry): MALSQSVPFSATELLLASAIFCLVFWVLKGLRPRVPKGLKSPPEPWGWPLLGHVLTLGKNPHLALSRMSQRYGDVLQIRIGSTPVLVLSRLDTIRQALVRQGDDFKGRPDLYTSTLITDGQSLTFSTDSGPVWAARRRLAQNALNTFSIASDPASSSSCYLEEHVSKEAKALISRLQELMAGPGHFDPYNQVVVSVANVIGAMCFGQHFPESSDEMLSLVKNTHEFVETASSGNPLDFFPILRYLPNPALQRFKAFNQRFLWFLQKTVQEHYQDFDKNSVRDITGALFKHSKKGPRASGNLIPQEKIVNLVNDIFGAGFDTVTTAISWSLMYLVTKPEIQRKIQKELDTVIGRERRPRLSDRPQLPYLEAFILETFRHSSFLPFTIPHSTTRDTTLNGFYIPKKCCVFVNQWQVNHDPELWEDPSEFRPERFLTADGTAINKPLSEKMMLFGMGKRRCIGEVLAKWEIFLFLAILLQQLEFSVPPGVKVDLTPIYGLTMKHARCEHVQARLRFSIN

[1] = biological target: Peroxisome proliferator-activated receptor gamma/Nuclear receptor coactivator 2 (Homo sapiens, UniProt P37231); assay: (§1) TR-FRET dose response biochemical High Throughput Screening assay for agonists of the steroid receptor coactivator 2 (SRC-2) recruitment by the peroxisome proliferator-activated receptor gamma (PPAR gamma): non-selective agonists. [Related pubchem assays: 1297, 1032 ]; format: functional
Cytochrome P450 2C9 = Cytochrome P450 2C9 (Homo sapiens, UniProt P11712)
[2] = biological target: Peroxisome proliferator-activated receptor gamma/Nuclear receptor coactivator 1 (Homo sapiens, UniProt P37231); assay: as §1, with “1 (SRC-1)” for “2 (SRC-2)”, “assays (depositor defined):AID1300, AID1808, AID504735, AID631]” for “assays: 1297, 1032 ]”; format: protein assay
[3] = biological target: Peroxisome proliferator-activated receptor gamma/Nuclear receptor coactivator 3 (Homo sapiens, UniProt P37231); assay: as §1, with “3 (SRC-3)” for “2 (SRC-2)”, “1301 (Confirmation screen.), 1048 (Primary screen.)]” for “1297, 1032 ]”; format: functional
BJ [4] = assay: cells; format: functional, cell-based; details: Homo sapiens
cells = format: functional, cell-based
[5] = alpha-synuclein stem-loop translation blockers – luminescence, H4 neuroglioblastoma cells, dose confirmation, confirmation (AID 2454); format: functional, cell-based;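 note: H4 neuroglioblastoma cells carrying an alpha-synuclein 5'UTR luciferase reporter; potency for inhibition of the luciferase signal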
[6] = Luminescence Cell-Based Dose Confirmation HTS to Identify Inhibitors of 5'UTR Stem-Loop Driven Alpha-Synuclein mRNA Translation in H4 Neuroglioblastoma Cells. [Related pubchem assays: 1827 (Project Summary), 1813 (Primary HTS)]; format: functional
[7] = Luminescence Cell-Based Dose Response HTS to Identify Inhibitors of 5'UTR Stem-Loop Driven Prion Protein mRNA Translation in H4 Neuroglioblastoma Cells. [Related pubchem assays: 1827 (Project Summary), 1813 (Primary HTS)]; format: functional
[8] = DRD fibroblast viability loss – cell-based, non-viral oncogenic, luminescence, dose response (AID 1934); format: functional; details: Homo sapiens
[9] = Luminescence Cell-Based Dose Response HTS to Identify Activators of Luciferase Translation or Activity in H4-C Neuroglioblastoma Cells. [Related pubchem assays: 1829 (Project Summary), 1814 (Primary HTS)]; format: functional
[10] = luciferase reporter signal reduction – luminescence, H4-C neuroglioblastoma cells, dose response (AID 2458); format: functional, cell-based;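 note: H4 neuroglioblastoma cells stably carrying a luciferase reporter gene fusion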
BJ [11] = assay: BJ-TERT-LT-ST fibroblast viability loss – cell-based, RAS-independent, luminescence, dose response (AID 1935); format: functional; details: Homo sapiens;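 note: BJ fibroblasts immortalized with TERT plus LT and ST oncogenes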
[12] = luciferase reporter signal suppression in cells – H4 neuroglioma cells, luminescence, dose response (AID 1990); format: functional, cell-based
[13] = Luminescence Cell-Based Dose HTS Response to Identify Inhibitors of 5'UTR Stem-Loop Driven Prion Protein mRNA Translation in H4-C Neuroglioblastoma Cells. [Related pubchem assays (depositor defined):AID1814, AID1827]; format: functional
[14] = alpha-synuclein stem-loop luciferase translation blockers – H4 neuroglioma cells, luminescence, confirmation (AID 1988); format: functional, cell-based
[15] = HEK-293T viability loss after treatment – luminescence, T-cell screen hits, cytotoxicity control for TCR NF-kB inhibitor project, dose response (AID 489026); format: functional, cell-based;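 note: cells exposed to compound about 14 hours before the viability readout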
[16] = Luminescence Cell-Based Dose Retest to Confirm Activators of 5'UTR Stem-Loop Driven Alpha-Synuclein mRNA Translation in H4 Neuroglioblastoma Cells. [Related pubchem assays (depositor defined):AID1813, AID1829]; format: functional
[17] = Luminescence Cell-Based Dose Response HTS to Identify Inhibitors of Luciferase Translation or Activity in H4-C Neuroglioblastoma Cells. [Related pubchem assays: 1813 (Primary HTS), 1827 (Project Summary)]; format: functional
[18] = Luminescence Cell-Based Dose Response HTS to Identify Activators of 5'UTR Stem-Loop Driven Prion Protein mRNA Translation in H4-C Neuroglioblastoma Cells. [Related pubchem assays: 1829 (Project Summary), 1814 (Primary HTS)]; format: functional
[19] = Luminescence Cell-Based Dose Confirmation to Identify Activators of 5'UTR Stem-Loop Driven Alpha-Synuclein mRNA Translation in H4 Neuroglioblastoma Cells. [Related pubchem assays: 1829 (Project Summary), 1814 (Primary HTS)]; format: functional
[20] = biological target: Intestinal-type alkaline phosphatase (Mus musculus, UniProt P24822); assay: PubChem AID 488785; format: functional
[21] = biological target: T2, Alkaline phosphatase, tissue-nonspecific isozyme (Homo sapiens, UniProt P05186); assay: TNAP enzyme inhibition by screening hits, dose response, selectivity assay for mouse IAP inhibitor project, biochemical, human TNAP, uHTS hits (AID 488906); format: functional
T2 sequence (P05186 whole entry): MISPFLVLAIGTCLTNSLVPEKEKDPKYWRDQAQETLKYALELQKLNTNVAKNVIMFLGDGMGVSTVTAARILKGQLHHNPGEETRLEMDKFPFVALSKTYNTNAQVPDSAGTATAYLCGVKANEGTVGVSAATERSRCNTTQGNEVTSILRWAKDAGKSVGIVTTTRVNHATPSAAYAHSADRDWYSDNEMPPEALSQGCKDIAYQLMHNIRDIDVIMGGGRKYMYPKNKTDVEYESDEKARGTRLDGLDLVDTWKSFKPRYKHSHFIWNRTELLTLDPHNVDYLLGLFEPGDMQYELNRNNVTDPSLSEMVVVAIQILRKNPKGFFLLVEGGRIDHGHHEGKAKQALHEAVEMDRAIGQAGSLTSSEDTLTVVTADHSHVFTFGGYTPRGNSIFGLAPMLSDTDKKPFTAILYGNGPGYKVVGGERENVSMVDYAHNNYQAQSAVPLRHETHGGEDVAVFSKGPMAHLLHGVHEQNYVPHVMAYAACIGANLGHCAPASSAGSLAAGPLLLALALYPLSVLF

H4 = assay: Luminescence Cell-Based Dose Response HTS to Identify Activators of 5'UTR Stem-Loop Driven Prion Protein mRNA Translation in H4 Neuroglioblastoma Cells. [Related pubchem assays: 1829 (Project Summary), 1814 (Primary HTS)]; format: functional; details: Homo sapiens
[22] = biological target: Mitogen-activated protein kinase 10 (Homo sapiens, UniProt P53779); assay: Dose response biochemical screening assay for inhibitors of c-Jun N-Terminal Kinase 3 (JNK3). [Related pubchem assays: 746 ]
[23] = Luminescence Cell-Based Dose Response to Identify Activators of 5'UTR Stem-Loop Driven Prion Protein mRNA Translation in H4-C Neuroglioblastoma Cells. [Related pubchem assays: 1829 (Project Summary), 1814 (Primary HTS)]; format: functional
[24] = biological target: Intestinal-type alkaline phosphatase (Homo sapiens, UniProt P09923); assay: inhibition of human intestinal alkaline phosphatase – biochemical, dose response (AID 488876); format: functional
[25] = Luminescence Cell-Based Dose Response HTS to Identify Activators of Luciferase Translation or Activity in H4 […] Cells. [Related pubchem assays: 1829 (Project Summary), 1814 (Primary HTS)]; format: functional
[26] = Luminescence Cell-Based Dose Response to Identify Activators of Luciferase Translation or Activity in H4-C Neuroglioblastoma Cells. [Related pubchem assays: 1829 (Project Summary), 1814 (Primary HTS)]; format: functional
SUMO-activating enzyme [27] = biological target: T3, SUMO-activating enzyme (Homo sapiens, UniProt Q9UBT2); assay: blockers of SAE1/SAE2–UBC9 SUMO transfer – biochemical, HTRF, uHTS, primary screen (AID 2006); format: protein-complex assay
SUMO-activating enzyme [28] = biological target: T3, SUMO-activating enzyme; assay: blockers of UBC9-mediated SUMO conjugation – biochemical, AlphaScreen, SUMOylation inhibitor project, confirmation (AID 2018); format: functional

T3 sequence (Q9UBE0 whole entry): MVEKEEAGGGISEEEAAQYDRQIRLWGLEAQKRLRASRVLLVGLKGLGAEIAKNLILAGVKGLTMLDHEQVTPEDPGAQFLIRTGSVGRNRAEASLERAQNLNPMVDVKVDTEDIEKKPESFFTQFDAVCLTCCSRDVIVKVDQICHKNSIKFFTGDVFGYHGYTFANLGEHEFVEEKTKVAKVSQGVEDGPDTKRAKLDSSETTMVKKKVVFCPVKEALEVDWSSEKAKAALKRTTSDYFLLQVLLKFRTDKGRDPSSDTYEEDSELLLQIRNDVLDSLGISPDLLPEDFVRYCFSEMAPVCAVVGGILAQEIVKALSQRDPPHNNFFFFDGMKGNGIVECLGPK
T3 sequence (Q9UBT2 whole entry): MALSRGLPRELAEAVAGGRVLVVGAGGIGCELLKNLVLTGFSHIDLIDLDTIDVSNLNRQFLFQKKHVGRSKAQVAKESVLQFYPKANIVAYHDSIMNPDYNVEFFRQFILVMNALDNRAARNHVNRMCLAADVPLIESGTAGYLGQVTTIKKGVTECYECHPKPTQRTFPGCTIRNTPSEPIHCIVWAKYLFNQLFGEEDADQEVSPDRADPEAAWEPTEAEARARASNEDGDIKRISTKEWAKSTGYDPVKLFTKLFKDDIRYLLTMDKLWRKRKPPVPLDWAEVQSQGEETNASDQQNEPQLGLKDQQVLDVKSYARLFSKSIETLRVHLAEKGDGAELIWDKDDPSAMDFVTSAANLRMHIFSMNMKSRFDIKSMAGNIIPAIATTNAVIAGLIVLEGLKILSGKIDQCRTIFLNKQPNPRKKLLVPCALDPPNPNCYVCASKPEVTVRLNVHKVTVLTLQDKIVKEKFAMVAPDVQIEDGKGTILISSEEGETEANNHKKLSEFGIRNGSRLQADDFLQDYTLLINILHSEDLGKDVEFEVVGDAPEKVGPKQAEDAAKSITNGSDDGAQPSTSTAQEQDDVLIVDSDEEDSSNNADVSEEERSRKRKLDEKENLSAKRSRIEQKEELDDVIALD
Sequence of Intestinal-type alkaline phosphatase (Homo sapiens, UniProt P09923) (P09923 whole entry): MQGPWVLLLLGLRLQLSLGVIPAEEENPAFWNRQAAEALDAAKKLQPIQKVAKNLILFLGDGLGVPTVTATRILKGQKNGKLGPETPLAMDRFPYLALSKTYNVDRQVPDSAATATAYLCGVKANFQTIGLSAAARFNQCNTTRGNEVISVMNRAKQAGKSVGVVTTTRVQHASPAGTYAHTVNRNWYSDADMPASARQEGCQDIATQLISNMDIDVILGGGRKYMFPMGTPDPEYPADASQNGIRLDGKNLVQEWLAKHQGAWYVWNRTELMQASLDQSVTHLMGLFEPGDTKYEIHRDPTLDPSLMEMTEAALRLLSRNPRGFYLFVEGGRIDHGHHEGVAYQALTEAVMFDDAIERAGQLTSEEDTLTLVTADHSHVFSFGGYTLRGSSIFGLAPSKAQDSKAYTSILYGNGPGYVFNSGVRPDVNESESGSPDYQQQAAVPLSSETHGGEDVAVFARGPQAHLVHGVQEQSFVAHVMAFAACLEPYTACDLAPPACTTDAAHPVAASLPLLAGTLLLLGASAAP
Sequence of Cytochrome P450 2C9 (P11712 whole entry): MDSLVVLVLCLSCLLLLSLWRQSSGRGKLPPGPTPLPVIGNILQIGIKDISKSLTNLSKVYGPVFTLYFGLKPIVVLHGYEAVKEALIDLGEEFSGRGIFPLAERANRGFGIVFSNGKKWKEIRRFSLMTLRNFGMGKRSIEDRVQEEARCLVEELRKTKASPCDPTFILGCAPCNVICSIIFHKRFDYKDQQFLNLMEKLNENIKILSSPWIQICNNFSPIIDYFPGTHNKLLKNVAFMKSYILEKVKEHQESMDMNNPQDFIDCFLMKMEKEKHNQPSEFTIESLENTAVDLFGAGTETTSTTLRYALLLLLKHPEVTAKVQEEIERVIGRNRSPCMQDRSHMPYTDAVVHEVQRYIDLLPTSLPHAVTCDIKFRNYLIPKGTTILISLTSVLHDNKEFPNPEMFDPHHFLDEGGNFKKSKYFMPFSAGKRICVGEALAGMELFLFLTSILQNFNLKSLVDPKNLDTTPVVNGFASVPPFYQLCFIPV
Sequence of Intestinal-type alkaline phosphatase (Mus musculus, UniProt P24822) (P24822 whole entry): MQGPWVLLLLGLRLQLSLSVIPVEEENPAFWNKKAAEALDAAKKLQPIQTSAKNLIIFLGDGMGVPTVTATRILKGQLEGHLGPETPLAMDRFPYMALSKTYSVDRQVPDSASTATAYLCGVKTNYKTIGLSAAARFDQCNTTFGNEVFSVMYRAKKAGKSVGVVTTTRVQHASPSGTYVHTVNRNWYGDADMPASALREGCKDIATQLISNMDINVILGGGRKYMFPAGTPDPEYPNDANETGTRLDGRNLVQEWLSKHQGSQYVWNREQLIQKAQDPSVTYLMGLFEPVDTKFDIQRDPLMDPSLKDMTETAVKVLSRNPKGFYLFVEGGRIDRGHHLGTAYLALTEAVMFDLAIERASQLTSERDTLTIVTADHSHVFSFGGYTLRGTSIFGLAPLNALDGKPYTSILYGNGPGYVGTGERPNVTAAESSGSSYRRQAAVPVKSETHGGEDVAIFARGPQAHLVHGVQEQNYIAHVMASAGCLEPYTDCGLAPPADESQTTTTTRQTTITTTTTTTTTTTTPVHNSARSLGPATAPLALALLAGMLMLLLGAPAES
Sequence of Peroxisome proliferator-activated receptor gamma/Nuclear receptor coactivator 2 (P37231 whole entry): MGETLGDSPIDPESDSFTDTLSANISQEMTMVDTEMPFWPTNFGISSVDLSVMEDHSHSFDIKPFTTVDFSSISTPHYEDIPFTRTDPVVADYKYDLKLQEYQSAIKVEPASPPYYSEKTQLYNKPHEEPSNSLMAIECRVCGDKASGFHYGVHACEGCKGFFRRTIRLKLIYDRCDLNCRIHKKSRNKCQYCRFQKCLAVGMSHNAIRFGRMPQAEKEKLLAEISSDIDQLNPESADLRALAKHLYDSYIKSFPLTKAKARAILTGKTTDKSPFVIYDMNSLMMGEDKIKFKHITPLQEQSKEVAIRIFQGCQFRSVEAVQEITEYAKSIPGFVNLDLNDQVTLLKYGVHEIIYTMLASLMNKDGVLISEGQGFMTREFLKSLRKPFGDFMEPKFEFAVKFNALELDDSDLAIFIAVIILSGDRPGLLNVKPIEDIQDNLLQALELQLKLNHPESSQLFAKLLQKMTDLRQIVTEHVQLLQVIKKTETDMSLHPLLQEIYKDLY
Sequence of Peroxisome proliferator-activated receptor gamma/Nuclear receptor coactivator 2 (Q15596 whole entry, further chain): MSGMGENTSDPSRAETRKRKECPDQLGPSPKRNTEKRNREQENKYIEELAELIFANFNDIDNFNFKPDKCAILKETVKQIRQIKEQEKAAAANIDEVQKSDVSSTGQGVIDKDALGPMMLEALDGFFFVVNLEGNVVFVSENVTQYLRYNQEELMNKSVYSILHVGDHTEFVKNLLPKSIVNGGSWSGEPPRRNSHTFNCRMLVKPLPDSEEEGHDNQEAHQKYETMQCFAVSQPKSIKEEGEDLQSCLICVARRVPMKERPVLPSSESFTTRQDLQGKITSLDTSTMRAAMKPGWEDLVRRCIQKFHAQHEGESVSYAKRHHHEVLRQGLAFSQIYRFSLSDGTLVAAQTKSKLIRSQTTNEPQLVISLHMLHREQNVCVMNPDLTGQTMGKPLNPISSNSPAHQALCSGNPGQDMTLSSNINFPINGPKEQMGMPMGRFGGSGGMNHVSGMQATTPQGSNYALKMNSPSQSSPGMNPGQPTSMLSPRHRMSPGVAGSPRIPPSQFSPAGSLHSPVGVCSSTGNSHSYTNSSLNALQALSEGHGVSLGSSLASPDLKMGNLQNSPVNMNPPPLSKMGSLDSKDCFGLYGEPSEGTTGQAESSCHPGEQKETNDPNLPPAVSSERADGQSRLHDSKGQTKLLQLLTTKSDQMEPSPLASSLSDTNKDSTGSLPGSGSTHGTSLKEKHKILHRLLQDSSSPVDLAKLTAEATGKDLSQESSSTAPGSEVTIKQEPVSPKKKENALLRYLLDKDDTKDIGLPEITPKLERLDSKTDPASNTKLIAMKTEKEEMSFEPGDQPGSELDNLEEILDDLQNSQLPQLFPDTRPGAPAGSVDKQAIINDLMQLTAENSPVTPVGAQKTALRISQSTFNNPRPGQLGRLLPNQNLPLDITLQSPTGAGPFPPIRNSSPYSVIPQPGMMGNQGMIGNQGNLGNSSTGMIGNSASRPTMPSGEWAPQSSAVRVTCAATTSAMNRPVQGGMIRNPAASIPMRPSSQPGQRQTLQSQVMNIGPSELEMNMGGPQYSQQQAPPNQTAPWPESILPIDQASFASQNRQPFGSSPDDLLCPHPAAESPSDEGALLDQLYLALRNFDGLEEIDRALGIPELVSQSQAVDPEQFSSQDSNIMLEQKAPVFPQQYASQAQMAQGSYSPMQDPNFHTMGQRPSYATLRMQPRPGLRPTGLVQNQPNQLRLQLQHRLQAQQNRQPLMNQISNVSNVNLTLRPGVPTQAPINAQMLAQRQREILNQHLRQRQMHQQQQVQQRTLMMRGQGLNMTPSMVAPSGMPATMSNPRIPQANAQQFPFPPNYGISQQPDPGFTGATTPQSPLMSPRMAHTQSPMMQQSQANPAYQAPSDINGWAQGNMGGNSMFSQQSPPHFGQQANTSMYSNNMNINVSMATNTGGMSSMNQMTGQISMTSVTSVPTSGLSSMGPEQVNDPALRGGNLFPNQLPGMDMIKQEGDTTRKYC
Sequence of Mitogen-activated protein kinase 10 (P53779 whole entry): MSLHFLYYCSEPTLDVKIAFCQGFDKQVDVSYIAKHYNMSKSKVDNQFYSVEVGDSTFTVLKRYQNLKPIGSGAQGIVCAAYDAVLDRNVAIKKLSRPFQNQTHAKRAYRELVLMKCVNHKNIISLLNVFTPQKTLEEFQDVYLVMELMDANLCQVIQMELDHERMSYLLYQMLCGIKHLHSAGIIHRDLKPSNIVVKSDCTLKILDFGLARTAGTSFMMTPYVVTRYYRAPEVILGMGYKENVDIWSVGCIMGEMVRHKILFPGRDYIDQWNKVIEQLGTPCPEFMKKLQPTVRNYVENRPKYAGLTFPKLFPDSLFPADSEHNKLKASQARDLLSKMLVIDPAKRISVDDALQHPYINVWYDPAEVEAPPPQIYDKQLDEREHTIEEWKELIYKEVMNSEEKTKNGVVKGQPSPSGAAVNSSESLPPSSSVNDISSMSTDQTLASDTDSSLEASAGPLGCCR

## Cn1c(=O)cc(SCC(=O)NCCN2CCN(c3ccccc3F)CC2)c2cc(Cl)ccc21
Cytochrome P450 1A2
  AC50: 39.8 µM (inconclusive)
[1]
  EC50: 7.9 µM (active)
Cytochrome P450 2C9
  AC50: inconclusive
[2]
  EC50: 33.2 µM (inactive)
[3]
  EC50: > 79.4 µM (not active)

## COc1cccc(N2CCN(C(=O)c3ccc(C[S+]([O-])c4ccccc4C)o3)CC2)c1 (configuration not stated)
BJ [4]
  EC50: 35 µM (active)
cells
  EC50: 2.01 µM (active)
[5]
  EC50: > 12 µM (not active)
[6]
  EC50: 22.5 µM (active)
[7]
  EC50: 9.12 µM (active)
[8]
  EC50: 1.59 µM (active)
[9]
  EC50: 0.946 µM (inconclusive)
[10]
  EC50: 1.06 µM (active)
BJ [11]
  EC50: 1.2 µM (active)
[12]
  EC50: 7.05 µM (active)
[13]
  EC50: 0.325 µM (active)
[14]
  EC50: < 0.1 µM (active)
[15]
  IC50: > 80 µM (inactive)
[16]
  EC50: 22.5 µM (inconclusive)
[17]
  EC50: 0.946 µM (active)
[18]
  EC50: 0.325 µM (inconclusive)

## OCCCN1c2ccccc2Nc2nnc(-c3ccccc3)cc21
[19]
  EC50: 0.424 µM (active)
[20]
  IC50: 10.3 µM (active)
[21]
  IC50: > 100 µM (inactive)
H4
  EC50: 1.97 µM (active)
[22]
  IC50: > 31 µM (not active)
[23]
  EC50: 0.549 µM (active)
[24]
  IC50: > 100 µM (inactive)
[25]
  EC50: < 0.1 µM (inconclusive)
[26]
  EC50: > 12 µM (not active)

## COc1cccc2c(SCC(=O)N/N=C/c3ccc(O)cc3O)cc(C)nc12
SUMO-activating enzyme [27]
  IC50: 28.6 µM (active)
SUMO-activating enzyme [28]
  IC50: 3.17 µM (active)

Source: ChEMBL document CHEMBL1201862, “PubChem BioAssay data set” (2004)
